We go through two compounds from US20220041606A1, “POSITIVE ALLOSTERIC MODULATORS OF THE MUSCARINIC ACETYLCHOLINE RECEPTOR M1” (Vanderbilt University, priority 2020, published 2022).

For orientation: EC50 means the concentration at which the effect is half-maximal. A word on the Emax: it is the maximal effect, on the per cent scale that the assay sets.

Experiment [1] addresses T1, human mAChR M1 (Homo sapiens, UniProt P11229).
T1 construct: host or cells: CHO-K1 cells (ATCC), stably transfected using Lipofectamine2000
T1 sequence (P11229 1-460): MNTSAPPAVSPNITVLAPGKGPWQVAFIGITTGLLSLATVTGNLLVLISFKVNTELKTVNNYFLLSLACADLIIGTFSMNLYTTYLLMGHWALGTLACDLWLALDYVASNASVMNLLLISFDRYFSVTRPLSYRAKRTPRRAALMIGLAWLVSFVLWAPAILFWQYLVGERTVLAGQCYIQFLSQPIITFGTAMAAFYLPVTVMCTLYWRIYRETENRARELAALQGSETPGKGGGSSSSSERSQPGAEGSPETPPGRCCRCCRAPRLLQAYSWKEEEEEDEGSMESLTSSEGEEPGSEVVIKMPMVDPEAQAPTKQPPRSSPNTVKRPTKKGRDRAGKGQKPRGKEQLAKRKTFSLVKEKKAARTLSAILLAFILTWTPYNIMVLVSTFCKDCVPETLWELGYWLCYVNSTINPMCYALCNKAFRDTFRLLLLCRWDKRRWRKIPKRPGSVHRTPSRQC
Nature of the experiment: mAChR M1 cell-based functional assay (calcium mobilization), PAM activity: increase in the EC20 acetylcholine response. To be noted: CHO-K1 cells expressing hM1; potentiation of EC20 acetylcholine response. In a few lines: (§1)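 Fluorescence ratio calcium read-out (Fluo-4 AM, FDSS 6000) in human M1-expressing CHO-K1 cells. Agonist activity taken as concentration-dependent rise after compound addition; potentiation as enhancement of a subsequent EC20 acetylcholine challenge. Curves from 11-point threefold dilutions fitted by four-parameter logistic; Emax expressed versus acetylcholine maximum.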
A general note: A change in cytosolic calcium serves as a functional read-out for many receptors and channels.

Experiment [2] addresses T1, human mAChR M1. Nature of the experiment: mAChR M1 cell-based functional assay (calcium mobilization), agonist activity upon compound addition. To be noted: CHO-K1 cells expressing hM1; for EC50: compound alone, before acetylcholine addition; for Emax: relative to the maximum for acetylcholine. Put shortly: as §1

Structures are written as SMILES.

For `Cn1cc2c(-c3cc(F)c(Cn4cc(C(=O)N[C@H]5CCC[C@@H]5O)c5sccc5c4=O)c(F)c3)cccc2n1` [Compound D32, 5-(2,6-difluoro-4-(2-methyl-2H-indazol-4-yl)benzyl)-N-((1S,2S)-2-hydroxycyclopentyl)-4-oxo-4,5-dihydrothieno[3,2-c]pyridine-7-carboxamide], on human mAChR M1 [1], the EC50 was determined as 7.73 µM and the Emax stood at 40%. In addition, on human mAChR M1 [2], the EC50 was above 10 µM and the Emax is below 5%.

As for `Cn1cc2c(-c3cc(F)c(Cn4cc(C(=O)N[C@H]5CCCCC[C@@H]5O)c5sccc5c4=O)c(F)c3)cccc2n1` [Compound D33, 5-(2,6-difluoro-4-(2-methyl-2H-indazol-4-yl)benzyl)-N-((1S,2S)-2-hydroxycycloheptyl)-4-oxo-4,5-dihydrothieno[3,2-c]pyridine-7-carboxamide], on human mAChR M1 [1], the EC50 turned out to be 5.29 µM and the Emax is 42%. Moreover, at human mAChR M1 [2], the EC50 was above 10 µM and the Emax was below 5%.
